# Test results reported in patent publication US8809555B2, “Anti-leishmanial compound and anti-leishmanial drug” (Aoyama Gakuin Educational Foundation, priority 2010, dated 2014).
# Columns and labels:
# L. major PM2 = test: Analysis of in vivo anti-leishmanial activity (leishmaniasis mouse model); settings: mice infected with 1×10^7 promastigotes of L. major PM2; 200 μg by peritoneal injection once a day for three weeks; size of ulcer, antibody titer in blood, protozoan DNA in blood (FIG. 10-12)
# Experimental: In order to evaluate the in vivo anti-leishmanial activity of the compound represented by formula (3), which had been isolated by the procedure described above, a leishmaniasis mouse model was used to investigate the therapeutic effect. Six-week old mice ([…], male, 6 animals per group) were infected with 1×10^7 cells of cultured promastigotes of L. major PM2. From the day after the infection day, the compound represented by the formula (3) was administered to each specimen in an amount of 200 μg by peritoneal injection. The administration schedule was such that the compound was continuously administered once a day for three weeks. Further, as control, the same analysis was carried out also for a treatment group to which Amphotericin B was administered, and for a treatment group to which none was administered.
# [1] = system: Leishmania major promastigotes (MHOM/UZ/91/PM2); test: Analysis of in vitro anti-leishmanial activity (growth inhibition of L. major/egfp promastigotes, fluorescence); type: cell-based; settings: 25° C., 72 h, inhibition with Amphotericin B (positive control) defined as 100%, FIG. 9
# Source text: The compounds represented by formulas (1) to (6), which had been isolated by the procedure described above, were subjected to an analysis of the physiological activity under the conditions that are described below. Leishmania major promastigotes (MHOM/UZ/91/PM2) were selected as the Leishmania protozoa, and a L. major/egfp promastigotes in which a fluorescent protein egfp gene had been introduced was used. The compounds mentioned above were used as samples. Thus, the growth inhibition rate was determined under the following conditions.
# Promastigotes of transgenic Leishmania major (MHOM/UZ/91/PM2) expressing enhanced green fluorescent protein (L. major/egfp) were maintained at 25° C. in 199 medium (NISSUI Pharmaceutical, Tokyo, Japan) containing 10% fetal bovine serum, 25 mM Hepes buffer (MP Biomedicals, LLC) and 10 μg/mL […] (SIGMA-ALDRICH, inc., USA). […] Thereafter, fluorescence signals of L. major/egfp promastigotes were measured with a fluorescence microplate reader (Fluoroscan Ascent FL, Dainippon. Pharmaceutical Co., Osaka, Japan) with excitation at 485 nm and emission at 538 nm. […]
compound,measurement,setting,value
CC(C)=CCC/C(C)=C/CC/C(C)=C/CC/C(C)=C/CC1(CC(=O)O)CC(=O)C=CC1=O (centres unmarked) [formula (3)],in vivo anti-leishmanial activity,L. major PM2,equal to that of Amphotericin B
same,growth inhibition rate,[1],almost equal to the growth inhibition rate of Amphotericin B
